# Data published in patent US7053194B2, “Compositions and methods for p53-mediated repression of gene expression” (Fox Chase Cancer Center, priority 1999, dated 2006).
# Key:
# melanoma cells (CaCl) = assay: Northern analysis of survivin mRNA after doxorubicin; type: cell-based, human; settings: 0.5 ug/mL doxorubicin, as early as twelve hours
# Experimental: (§1) MCF-7 cells were maintained in RPMI-1640 supplemented with 10% fetal bovine serum and 100 units/ml of penicillin and streptomycin. The human melanoma cell line CaCl, and the derivative clone expressing the HPV E6 gene, were cultured as described (Ahn et al., Oncogene). The human osteosarcoma cell lines Saos-2 and U2-OS (kindly provided by Peter Adams, Fox Chase Cancer Center), the murine p21 knock-out fibroblasts (kindly provided by James Sherley, MIT) and the human lung adenocarcinoma cell line H1299 were cultured in DMEM supplemented with 10% fetal bovine serum and 100 units/ml of penicillin and streptomycin. Murine Va15 cells, containing the temperature-sensitive Valine 135 allele of p53, were maintained as described (Wu, et al., Genes & Devel. 7:1126–1132, 1993). All cells were grown at 37° C. […] For treatment with ultra-violet light, cells were irradiated with 0–10 J/m2 (as noted) of UV-C with a Spectroline X series ultraviolet lamp, and output was monitored with a traceable UV light meter (Fisher Scientific). […]
# (§2) The full-length coding region for survivin was generated by reverse transcription-polymerase chain reaction (RT-PCR) using 5 ug of total RNA from the H1299 human lung adenocarcinoma cell line, using the Access RT-PCR kit (Promega) and the following oligonucleotides: forward 5′ […] […] Autoradiographs were quantitated using NIH image software. […]
# CaCl and CaCl/E6 = assay: Western analysis of survivin after doxorubicin in melanoma line with or without HPV E6; type: cell-based, human; settings: CaCl versus CaCl/E6, doxorubicin treatment
# Experimental: (§3) MCF-7 cells were maintained in RPMI-1640 supplemented with 10% fetal bovine serum and 100 units/ml of penicillin and streptomycin. The human melanoma cell line CaCl, and the derivative clone expressing the HPV E6 gene, were cultured as described (Ahn et al., Oncogene). The human osteosarcoma cell lines Saos-2 and U2-OS (kindly provided by Peter Adams, Fox Chase Cancer Center), the murine p21 knock-out fibroblasts (kindly provided by James Sherley, MIT) and the human lung adenocarcinoma cell line H1299 were cultured in DMEM supplemented with 10% fetal bovine serum and 100 units/ml of penicillin and streptomycin. […] For treatment with ultra-violet light, cells were irradiated with 0–10 J/m2 (as noted) of UV-C with a Spectroline X series ultraviolet lamp, and output was monitored with a traceable UV light meter (Fisher Scientific). For drug treatment, cells were treated with 0.5ug/ml adriamycin (doxorubicin, Sigma), or dilution vehicle alone, for twenty-four hours. p53 induction was monitored by western analysis of 100 ug protein as described (Murphy et al., Genes & Devel. 10:2971–2980, 1996), using 0.1ug/ml DO-1 (Ab-6, Calbiochem) or 421 (Ab-1, Calbiochem.
# (§4) Western analysis was performed essentially as described (Murphy et al., 1999). […] Protein concentrations were determined using the Bio-Rad Dc Protein Assay (Bio-Rad). […]
# [1] = test system: human breast carcinoma cells (MCF7); assay: Northern analysis of survivin mRNA after doxorubicin; type: cell-based; settings: MCF7, 0.5 ug/mL doxorubicin, as early as twelve hours
# Experimental: as §1, §2
# [2] = test system: MCF7 breast carcinoma cells; assay: Western analysis of p53 and survivin protein after doxorubicin; type: cell-based, human; settings: twenty-four hour treatment
# Experimental: as §3, §4
# [3] = test system: Saos2 (p53-null) and U20S (wt p53); assay: Western analysis of survivin after doxorubicin in osteosarcoma lines; type: cell-based, human; settings: Saos2 (p53-null) versus U20S (wt p53), doxorubicin treatment
# Experimental: as §3, §4
structure (smiles),measurement,setting,value
"COc1cccc2c1C(=O)c1c(O)c3c(c(O)c1C2=O)C[C@@](O)(C(=O)CO)C[C@@H]3O[C@H]1C[C@H](N)[C@H](O)[C@H](C)O1 [adriamycin, doxorubicin]",mRNA levels for survivin,melanoma cells (CaCl),marked decreases in mRNA levels for survivin
same,survivin protein levels,CaCl and CaCl/E6,down-regulation of survivin protein levels only in parental CaCl cells
same,mRNA levels for survivin,[1],marked decreases in mRNA levels for survivin
same,decrease of survivin protein levels,[2],3–4 fold
same,induction of p53 expression,[2],4 fold
same,survivin protein levels,[3],decreased survivin protein levels only in cells with wt p53 (U20S)
